In patent publication US7358267B2, “Bis-aryl thiazole derivatives” (Amgen Inc., priority 2001, dated 2008):

Tests used:
[1] = system: UCP3; test: UCP3 RNA induction in rat L6 cells (QPCR); type: cell-based; set-up: key to UCP3 RNA induction, Induction at 10 μM: ++ denotes greater than 10-fold induction; + denotes 10-fold or less induction; — denotes no induction
Method: Table 1 provides QPCR data (ABI 7700 Sequence Detection System) for exemplary compounds of formula I evaluated for UCP3 RNA induction in L6 cells from rats. The assay is described in Example 14.4, below.
Rat UCP3 (L6 cells) QPCR Protocol
1. (Day1) Plate 300,000 L6 cells per well (24 well plate) in Minimum Essential Medium-Alpha Medium with 2% FBS and Antibiotic/Antimycotic Solution added. Incubate for 2 days and change to fresh medium (Day3). Incubate 1 more day.
2. (Day 4) Add compound at desired concentration. Incubate for 18-20 h. 2 wells per compound. 4-wells of DMSO controls per plate.
3. (Day 5) Prepare RNA from cells: • (1) Aspirate media and lyse cells directly on plate by adding 500 μL of Trizol Reagent (Gibco BRL) to each well and passing the lysate several times through a pipette. Transfer lysate to eppendorf tubes (combining the lysate from identical compound treatments). • (2) Add 200 μL of chloroform to the 1 mL of lysate. Vortex to mix and incubate at room temp. for 2-3 min. Spin samples in a microfuge at 12,000 rpm for 15 min. at 4° C. • (3) Transfer the aqueous phase to a fresh tube. Precipitate the RNA from the aqueous phase by adding 500 μL of isopropanol and mixing well. Incubate at −20° C. for at least 15 min. Pellet the RNA by spinning at 12,000 rpm for 10 min. at 4° C. • (4) Remove the supernatant and wash the RNA pellet with 500 μL of 75% ethanol. Spin at 10,000 rpm for 5 min. at 4° C. • (5) Remove the supernatant and allow pellet to air dry briefly. Dissolve RNA in 15 μL of RNase-free water. Store at −80° C. Electrophorese some RNA to check quality.
4. QPCR (50 μL reactions in 96 well MicroAmp Optical Plate): TaqMan Gold RT-PCR Reagents (PE catalog #N808-0232): OD RNA and dilute to 5 ng/μL in RNase-free water. All samples run in duplicate with UCP3 and m18S probe/primers
Add 40 μL of Reaction Mix to 10 μL of diluted RNA (50 ng total) on QPCR plate PCR Cycling Parameters • 48° C. 30 min. • 95° C. 10 min. • 40 cycles: 95° C. 15 sec. • 58° C. 1.5 min. QPCR Primers/Probes

[2] = biological target: T1, RXRα (Homo sapiens, UniProt P19793); test: RXRα induction in HEK 293 cells (transient transfection, luciferase reporter); type: cell-based
T1 construct: expressed in transfected cells; host or cells: HEK 293 cells
T1 sequence (P19793 1-462): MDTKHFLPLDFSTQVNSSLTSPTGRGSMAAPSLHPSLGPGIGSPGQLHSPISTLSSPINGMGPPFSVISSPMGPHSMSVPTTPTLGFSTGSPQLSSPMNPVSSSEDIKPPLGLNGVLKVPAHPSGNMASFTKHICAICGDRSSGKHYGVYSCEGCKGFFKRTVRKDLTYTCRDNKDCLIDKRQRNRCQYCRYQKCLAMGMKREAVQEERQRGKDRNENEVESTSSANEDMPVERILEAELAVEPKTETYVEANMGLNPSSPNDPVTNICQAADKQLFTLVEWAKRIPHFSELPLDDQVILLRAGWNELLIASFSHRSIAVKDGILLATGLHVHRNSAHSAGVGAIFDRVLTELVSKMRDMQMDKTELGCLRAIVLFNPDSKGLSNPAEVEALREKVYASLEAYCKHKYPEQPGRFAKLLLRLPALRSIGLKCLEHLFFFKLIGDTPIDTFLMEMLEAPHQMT
Method: Table 2 provides QPCR data (ABI 7700 Sequence Detection System) for exemplary compounds of formula I evaluated for RXR induction in HEK 293 cells, following a general protocol, briefly described below. See Naeger et al. (1999) J. Biol. Chem. 274:1875-1878 for a related cell-based assay.
DNA constructs containing a luciferase reporter plasmid and another plasmid which contained an activation domain (e.g., RXRα) were transiently transfected into HEK 293 cells. The cells were treated with the compounds and luciferase activity was measured using a luminometer. Fold induction was determined by comparing the luciferase activity of treated cells to the activity of untreated cells.

Row | Compound | fold induction at 10 µM [1] | melting point [°C] | RXRα RNA induction at 1 μM [2] | RXRα RNA induction at 3 μM [2] | RXRα RNA induction at 10 μM [2] | UCP3 RNA induction, Induction at 10 μM [1]
1 | Cc1c(C(=O)O)cnn1-c1nc(-c2cccc(Cl)c2)cs1 [Compound 4, 1-[4-(3-Chlorophenyl)thiazol-2-yl]-5-methylpyrazole-4-carboxylic acid] | > 10 | 258 to 258.3 |  |  |  | 
2 | O=C(O)c1cnn(-c2nc(-c3cccc(C(F)(F)F)c3)cs2)c1C(F)(F)F [Compound 5, 1-[4-(3-(Trifluoromethyl)phenyl)thiazol-2-yl]-5-trifluoromethylpyrazole-4-carboxylic acid] | > 10 |  | + (+ denotes 5-fold or less induction) | + (+ denotes 5-fold or less induction) | + (+ denotes 5-fold or less induction) | 
3 | O=C(O)c1cnn(-c2nc(-c3cccc(C(F)(F)F)c3)cs2)c1 [Compound 6, 1-[4-(3-(Trifluoromethyl)phenyl)thiazol-2-yl]pyrazole-4-carboxylic acid] | > 10 | 229.1 to 229.6 |  |  |  | 
4 | CCOC(=O)c1cnn(-c2nc(-c3cccc([N+](=O)[O-])c3)cs2)c1C [Compound 8, Ethyl 1-[4-(3-nitrophenyl)thiazol-2-yl]-5-methylpyrazole-4-carboxylate] |  |  | + (+ denotes 5-fold or less induction) | + (+ denotes 5-fold or less induction) | + (+ denotes 5-fold or less induction) | —
5 | CCOC(=O)c1cnn(-c2nc(-c3cccc(C(F)(F)F)c3)cs2)c1C [Compound 11, Ethyl 1-[4-(3-(trifluoromethyl)phenyl)thiazol-2-yl]-5-methylpyrazole-4-carboxylate] | ≤ 10 | 138 to 138.5 |  |  |  | 
6 | O=C(O)c1cnn(-c2nc(-c3cccc([N+](=O)[O-])c3)cs2)c1C(F)(F)F [Compound 12, 1-[4-(3-Nitrophenyl)thiazol-2-yl]-5-trifluoromethylpyrazole-4-carboxylic acid] |  |  |  |  |  | —
7 | COc1cccc(-c2csc(-n3ncc(C(=O)O)c3C)n2)c1 [Compound 14] |  |  | ++ (++ denotes greater than 5-fold induction) | ++ (++ denotes greater than 5-fold induction) | ++ (++ denotes greater than 5-fold induction) | 
8 | CCc1c(C(=O)O)cnn1-c1nc(-c2cccc(C(F)(F)F)c2)cs1 [Compound 15] |  |  | + (+ denotes 5-fold or less induction) | ++ (++ denotes greater than 5-fold induction) | + (+ denotes 5-fold or less induction) | 
9 | O=C(O)c1cnn(-c2nc(-c3cccc(C(F)(F)F)c3)cs2)c1C(=O)O [Compound 16] |  |  | + (+ denotes 5-fold or less induction) | + (+ denotes 5-fold or less induction) | + (+ denotes 5-fold or less induction) | 
10 | Cc1c(C(=O)O)cnn1-c1nc(-c2ccccc2)cs1 [Compound 17] |  |  | + (+ denotes 5-fold or less induction) | + (+ denotes 5-fold or less induction) | + (+ denotes 5-fold or less induction) | 
11 | Cc1c(C(=O)O)cnn1-c1nc(-c2ccc(Cl)cc2)cs1 [Compound 18] |  |  | + (+ denotes 5-fold or less induction) | ++ (++ denotes greater than 5-fold induction) | + (+ denotes 5-fold or less induction) | 
12 | Cc1c(C(=O)O)cnn1-c1nc(-c2ccc(-c3ccccc3)cc2)cs1 [Compound 19] |  |  | + (+ denotes 5-fold or less induction) | + (+ denotes 5-fold or less induction) | + (+ denotes 5-fold or less induction) | 
13 | Cc1c(C(=O)NCCC(=O)O)cnn1-c1nc(-c2cccc(C(F)(F)F)c2)cs1 [Compound 20] | ≤ 10 |  |  |  |  | 
